Source: patent publication US9738634B2, “Heterocyclic amide compound and herbicide” (SYNGENTA PARTICIPATIONS AG, priority 2013, dated 2017)

Tests used:
Format in all cases: in vivo
soybean [1] = experiment: Test Example 3: soil treatment, effect on crop; d: soybean; conditions: treatment dosage 315 g/ha
In short: (§1)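 Crop and weed responses were judged three weeks after a uniform surface spray of the water-diluted emulsion at the given g/ha rate. Seeds sat beneath about 1.5 cm of sterilized diluvial soil, and boxes stood in a greenhouse at 25 to 30° C.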

fig-leafed goosefoot [2] = experiment: Test Example 4: weedkilling efficacy by foliar treatment; M: fig-leafed goosefoot; conditions: treatment dosage 315 g/ha
Description: (§2) Testing of Weedkilling Efficacy by Foliar Treatment
(§3) Sterilized diluvial soil was introduced into 21 cm long, 13 cm wide, 7 cm deep plastic boxes, and seeds of crabgrass, green foxtail, barnyard grass, wild oat, black-grass, Italian ryegrass, common wind-grass, Indian mallow, redroot pigweed, fig-leafed goosefoot, chickweed, catchweed, birds-eye speedwell, corn, soybean, rice, wheat, beet and rapeseed were each spot-sown, and covered with about 1.5 cm of soil, then the plants were grown in a greenhouse at 25 to 30° C.
(§4) After they had grown for 14 days, emulsions of compounds of the present invention prepared according to compounding example 2 were diluted with water to give the specified dosages, and applied uniformly onto the stem and leaf parts with a small sprayer. 3 weeks after the pesticide treatment the effect on each type of plant was investigated on the basis of the assessment criteria of test example 1.
(§5) A: barnyard grass, B: bulrush, C: oval-leafed pondweed, D: crabgrass, E: green foxtail, F: barnyard grass, G: wild oat, H: black-grass, I: Italian ryegrass, J: common wind-grass, K: Indian mallow, L: redroot pigweed, M: fig-leafed goosefoot, N: chickweed, O: catchweed, p: birds-eye speedwell, a: transplanted rice, b: directly sown rice, c: corn, d: soybean, e: wheat, f: beet, g: rapeseed
(§6) Further, pesticide dosage (g/ha) indicates the concentration regulated such that treatment was with only the stated number of grams (g), when calculated per hectare (ha).

directly sown rice [3] = experiment: Test Example 4: foliar treatment, effect on crop; b: directly sown rice; conditions: treatment dosage 315 g/ha
Description: as §2, §3, §4, §5, §6

Indian mallow [4] = experiment: Test Example 4: weedkilling efficacy by foliar treatment; K: Indian mallow; conditions: treatment dosage 315 g/ha
Description: as §2, §3, §4, §5, §6

green foxtail [5] = experiment: Test Example 3: weedkilling efficacy through soil treatment; E: green foxtail; conditions: treatment dosage 315 g/ha
In short: as §1

redroot pigweed [6] = experiment: Test Example 4: weedkilling efficacy by foliar treatment; L: redroot pigweed; conditions: treatment dosage 315 g/ha
Description: as §2, §3, §4, §5, §6

corn [7] = experiment: Test Example 4: foliar treatment, effect on crop; c: corn; conditions: treatment dosage 315 g/ha
Description: as §2, §3, §4, §5, §6

bulrush [8] = experiment: Test Example 2: weedkilling efficacy, growth period weed treatment in the submerged state; B: bulrush; conditions: treatment dosage 252 g/ha
In short: (§7)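 Seedlings at 1-2 leaves in 4 cm-deep submerged alluvial soil received emulsion formulations on the water surface, dosed per hectare; effects were judged 3 weeks on.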

wheat = experiment: Test Example 4: foliar treatment, effect on crop; e: wheat; conditions: treatment dosage 315 g/ha
Description: as §2, §3, §4, §5, §6

chickweed [9] = experiment: Test Example 4: weedkilling efficacy by foliar treatment; N: chickweed; conditions: treatment dosage 315 g/ha
Description: as §2, §3, §4, §5, §6

bulrush [10] = experiment: Test Example 1: weedkilling efficacy, preemergent weed treatment in the submerged state; B: bulrush; conditions: treatment dosage 252 g/ha
In short: (§8)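 Submerged pre-emergence treatment, water-surface application of compound emulsion at g/ha dosages; 4 cm flooded alluvial soil, weeds sown and 2.5-leaf rice transplanted same day. Rated after 3 weeks, greenhouse.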

black-grass [11] = experiment: Test Example 3: weedkilling efficacy through soil treatment; H: black-grass; conditions: treatment dosage 315 g/ha
In short: as §1

Indian mallow [12] = experiment: Test Example 3: weedkilling efficacy through soil treatment; K: Indian mallow; conditions: treatment dosage 315 g/ha
In short: as §1

green foxtail [13] = experiment: Test Example 4: weedkilling efficacy by foliar treatment; E: green foxtail; conditions: treatment dosage 315 g/ha
Description: as §2, §3, §4, §5, §6

Italian ryegrass [14] = experiment: Test Example 4: weedkilling efficacy by foliar treatment; I: Italian ryegrass; conditions: treatment dosage 315 g/ha
Description: as §2, §3, §4, §5, §6

chickweed [15] = experiment: Test Example 3: weedkilling efficacy through soil treatment; N: chickweed; conditions: treatment dosage 315 g/ha
In short: as §1

soybean [16] = experiment: Test Example 4: foliar treatment, effect on crop; d: soybean; conditions: treatment dosage 315 g/ha
Description: as §2, §3, §4, §5, §6

redroot pigweed [17] = experiment: Test Example 3: weedkilling efficacy through soil treatment; L: redroot pigweed; conditions: treatment dosage 315 g/ha
In short: as §1

corn [18] = experiment: Test Example 3: soil treatment, effect on crop; c: corn; conditions: treatment dosage 315 g/ha
In short: as §1

fig-leafed goosefoot [19] = experiment: Test Example 3: weedkilling efficacy through soil treatment; M: fig-leafed goosefoot; conditions: treatment dosage 315 g/ha
In short: as §1

oval-leafed pondweed [20] = experiment: Test Example 2: weedkilling efficacy, growth period weed treatment in the submerged state; C: oval-leafed pondweed; conditions: treatment dosage 252 g/ha
In short: as §7

oval-leafed pondweed [21] = experiment: Test Example 1: weedkilling efficacy, preemergent weed treatment in the submerged state; C: oval-leafed pondweed; conditions: treatment dosage 252 g/ha
In short: as §8

beet [22] = experiment: Test Example 4: foliar treatment, effect on crop; f: beet; conditions: treatment dosage 315 g/ha
Description: as §2, §3, §4, §5, §6

Italian ryegrass [23] = experiment: Test Example 3: weedkilling efficacy through soil treatment; I: Italian ryegrass; conditions: treatment dosage 315 g/ha
In short: as §1

birds-eye speedwell [24] = experiment: Test Example 4: weedkilling efficacy by foliar treatment; p: birds-eye speedwell; conditions: treatment dosage 315 g/ha
Description: as §2, §3, §4, §5, §6

black-grass [25] = experiment: Test Example 4: weedkilling efficacy by foliar treatment; H: black-grass; conditions: treatment dosage 315 g/ha
Description: as §2, §3, §4, §5, §6

catchweed = experiment: Test Example 4: weedkilling efficacy by foliar treatment; O: catchweed; conditions: treatment dosage 315 g/ha
Description: as §2, §3, §4, §5, §6

barnyard grass [26] = experiment: Test Example 1: weedkilling efficacy, preemergent weed treatment in the submerged state; A: barnyard grass; conditions: treatment dosage 252 g/ha
In short: as §8

transplanted rice = experiment: Test Example 1: preemergent weed treatment in the submerged state, effect on crop; a: transplanted rice; conditions: treatment dosage 252 g/ha
In short: as §8

birds-eye speedwell [27] = experiment: Test Example 3: weedkilling efficacy through soil treatment; p: birds-eye speedwell; conditions: treatment dosage 315 g/ha
In short: as §1

beet [28] = experiment: Test Example 3: soil treatment, effect on crop; f: beet; conditions: treatment dosage 315 g/ha
In short: as §1

crabgrass [29] = experiment: Test Example 4: weedkilling efficacy by foliar treatment; D: crabgrass; conditions: treatment dosage 315 g/ha
Description: as §2, §3, §4, §5, §6

directly sown rice [30] = experiment: Test Example 3: soil treatment, effect on crop; b: directly sown rice; conditions: treatment dosage 315 g/ha
In short: as §1

barnyard grass [31] = experiment: Test Example 2: weedkilling efficacy, growth period weed treatment in the submerged state; A: barnyard grass; conditions: treatment dosage 252 g/ha
In short: as §7

crabgrass [32] = experiment: Test Example 3: weedkilling efficacy through soil treatment; D: crabgrass; conditions: treatment dosage 315 g/ha
In short: as §1

CC1=C(c2cccs2)C(=O)N(C(C)(C)C(=O)Nc2cccc(Cl)n2)CO1 [B-2-01]
d (soybean) effect on crop grade (soybean [1]): 0 (weed kill ratio 5% or less (practically no effect))
M (fig-leafed goosefoot) weedkilling efficacy grade (fig-leafed goosefoot [2]): 4 (weed kill ratio 70% or more, less than 90%)
b (directly sown rice) effect on crop grade (directly sown rice [3]): 5 (weed kill ratio 90% or more, (practically complete withering))
K (Indian mallow) weedkilling efficacy grade (Indian mallow [4]): 3 (weed kill ratio 40% or more, less than 70%)
E (green foxtail) weedkilling efficacy grade (green foxtail [5]): 5 (weed kill ratio 90% or more, (practically complete withering))
L (redroot pigweed) weedkilling efficacy grade (redroot pigweed [6]): 5 (weed kill ratio 90% or more, (practically complete withering))
c (corn) effect on crop grade (corn [7]): 0 (weed kill ratio 5% or less (practically no effect))
B (bulrush) weedkilling efficacy grade (bulrush [8]): 5 (weed kill ratio 90% or more, (practically complete withering))
e (wheat) effect on crop grade (wheat): 1 (weed kill ratio 5% or more, less than 20%)
N (chickweed) weedkilling efficacy grade (chickweed [9]): 4 (weed kill ratio 70% or more, less than 90%)
B (bulrush) weedkilling efficacy grade (bulrush [10]): 5 (weed kill ratio 90% or more, (practically complete withering))
H (black-grass) weedkilling efficacy grade (black-grass [11]): 5 (weed kill ratio 90% or more, (practically complete withering))
K (Indian mallow) weedkilling efficacy grade (Indian mallow [12]): 3 (weed kill ratio 40% or more, less than 70%)
E (green foxtail) weedkilling efficacy grade (green foxtail [13]): 5 (weed kill ratio 90% or more, (practically complete withering))
I (Italian ryegrass) weedkilling efficacy grade (Italian ryegrass [14]): 5 (weed kill ratio 90% or more, (practically complete withering))
N (chickweed) weedkilling efficacy grade (chickweed [15]): 3 (weed kill ratio 40% or more, less than 70%)
d (soybean) effect on crop grade (soybean [16]): 5 (weed kill ratio 90% or more, (practically complete withering))
L (redroot pigweed) weedkilling efficacy grade (redroot pigweed [17]): 4 (weed kill ratio 70% or more, less than 90%)
c (corn) effect on crop grade (corn [18]): 0 (weed kill ratio 5% or less (practically no effect))
M (fig-leafed goosefoot) weedkilling efficacy grade (fig-leafed goosefoot [19]): 4 (weed kill ratio 70% or more, less than 90%)
C (oval-leafed pondweed) weedkilling efficacy grade (oval-leafed pondweed [20]): 5 (weed kill ratio 90% or more, (practically complete withering))
C (oval-leafed pondweed) weedkilling efficacy grade (oval-leafed pondweed [21]): 5 (weed kill ratio 90% or more, (practically complete withering))
f (beet) effect on crop grade (beet [22]): 4 (weed kill ratio 70% or more, less than 90%)
I (Italian ryegrass) weedkilling efficacy grade (Italian ryegrass [23]): 5 (weed kill ratio 90% or more, (practically complete withering))
P (birds-eye speedwell) weedkilling efficacy grade (birds-eye speedwell [24]): 0 (weed kill ratio 5% or less (practically no effect))
H (black-grass) weedkilling efficacy grade (black-grass [25]): 5 (weed kill ratio 90% or more, (practically complete withering))
O (catchweed) weedkilling efficacy grade (catchweed): 4 (weed kill ratio 70% or more, less than 90%)
A (barnyard grass) weedkilling efficacy grade (barnyard grass [26]): 5 (weed kill ratio 90% or more, (practically complete withering))
a (transplanted rice) effect on crop grade (transplanted rice): 2 (weed kill ratio 20% or more, less than 40%)
P (birds-eye speedwell) weedkilling efficacy grade (birds-eye speedwell [27]): 5 (weed kill ratio 90% or more, (practically complete withering))
f (beet) effect on crop grade (beet [28]): 4 (weed kill ratio 70% or more, less than 90%)
D (crabgrass) weedkilling efficacy grade (crabgrass [29]): 5 (weed kill ratio 90% or more, (practically complete withering))
b (directly sown rice) effect on crop grade (directly sown rice [30]): 5 (weed kill ratio 90% or more, (practically complete withering))
A (barnyard grass) weedkilling efficacy grade (barnyard grass [31]): 5 (weed kill ratio 90% or more, (practically complete withering))
D (crabgrass) weedkilling efficacy grade (crabgrass [32]): 5 (weed kill ratio 90% or more, (practically complete withering))
